In patent publication US20190351076A1, “TUMOR CELL XENOGRAFT MODEL IN ZEBRAFISH, AND METHODS OF CONSTRUCTING AND USING THE SAME” (NANJING EMORY BIOTECHNOLOGY CO., LTD., priority 2017, published 2019):

Key:
[1] = tested on: zebrafish embryos; conditions: zebrafish embryos two days after fertilization, treated for 3 days
Protocol: For the quantitative analysis, the antitumor effect is calculated according to the following formula: the tumor inhibition rate of the drug=(the fluorescence intensity of the treatment group/the fluorescence intensity of the control group)*100%.
1. Four groups, each group having four randomly selected zebrafish embryos that were two days old after fertilization, were placed in a solution of curcumin containing 0.1% DMSO. The curcumin concentrations were 10 μM, 30 μM, 50 μM, and 70 μM, respectively, and the treatment was continued for 3 days.

[2] = tested on: patient-derived primary gastric cancer cells; assay: Patient-derived gastric cancer cell xenograft model in zebrafish, fluorescence quantification; type: in vivo, human; conditions: 4000 μM and 400 μM soak for three days, day 7 after the injection
Protocol: (§1) The patient-derived clinical tissue biopsy that was a surgical specimen of gastric cancer was placed in physiological saline. The blood clot, necrotic tissue, fat and connective tissues on the surface of the tumor tissue were removed under aseptic conditions. The tissue was cut by an ophthalmic scissor after sterilization, and washed 2 times with sterile phosphate buffer (pH 7.4). A small amount of phosphate buffer was added, and the tissue was repeatedly cut with an ophthalmic scissor until the tissue became a paste and was about 1 mm^3. 0.25% trypsin was added and the tissue was digested at 37° C. for 10 minutes. […] The cells were re-suspended in RPMI-1640 medium containing 10% FBS (fetal calf serum).
(§2) The primary cells obtained by dissociation were stained with CM-Dil, where the final dye concentration was 2 μg/ml, and the staining time was 1 hour. The dye was removed by centrifugation, and the cells were washed with a phosphate buffer and re-suspended to a cell density of 1×10^4/μl.
(§3) The stained cells were filled into a microinjector. […]
Within 7 days after the injection, the growth, metastasis and spread of the cells derived from the patient in the zebrafish were observed under a fluorescence microscopy and photographed. […]

[3] = tested on: gastric cancer; assay: Clinical outcome of 5-FU treatment in the gastric cancer patients; type: in vivo, human
[4] = tested on: SGC-7901; assay: Human gastric cancer cell line xenograft model in zebrafish (SGC-7901); type: in vivo; conditions: SGC-7901 xenograft; 4000 μM and 400 μM soak for three days; day 7 after injection
Protocol: (§4) 4000 μM and 400 μM5-FU were used to soak the zebrafish embryos injected with gastric cancer cell lines (SGC-7901 and AGS) (constructed as in Example 1) for three consecutive days, and 0.1% DMSO was used as a solvent control.
(§5) The red cells were photographed under a fluorescence microscope, and the red fluorescence intensity was quantified by Image Pro Plus software to calculate the anti-tumor effect of 5-FU by a formula: Tumor inhibition rate of the drug=(the fluorescence intensity of the treatment group/the fluorescence intensity of the control group)*100% (see FIG. 4).

[5] = tested on: AGS; assay: Human gastric cancer cell line xenograft model in zebrafish (AGS); type: in vivo; conditions: 4000 μM and 400 μM soak for three days, day 7 after injection
Protocol: as §4, §5

[6] = tested on: lung cancer; assay: Clinical outcome of drug treatment in the lung cancer patients; type: in vivo, human
[7] = tested on: A549; assay: Human lung cancer cell line xenograft model in zebrafish (A549); type: in vivo; conditions: 50 μM and 5 μM soak for three days, day 7 after injection
[8] = tested on: patient-derived primary lung cancer cells; assay: Patient-derived lung cancer cell xenograft model in zebrafish, fluorescence quantification; type: in vivo, human; conditions: 50-μM and 5-μM soak for three days, day 7 after the injection
Protocol: as §1, with “lung” for “gastric”, “mm^3 in size.” for “mm^3.”, “resuspended” for “re-suspended”
as §2, §3
Within 4 days after the injection, the growth, metastasis and spread of the cells derived from the patient in the zebrafish were observed under a fluorescence microscopy and photographed. […]

Structure (SMILES): CC(=O)O[C@@]12CO[C@@H]1C[C@H](O)[C@@]1(C)C(=O)[C@H](O)C3=C(C)[C@@H](OC(=O)[C@H](O)[C@@H](NC(=O)OC(C)(C)C)c4ccccc4)C[C@@](O)([C@@H](OC(=O)c4ccccc4)[C@H]21)C3(C)C [docetaxel]
- highest concentration within the safe range for embryos [1]: 10 µM

Structure (SMILES): O=c1[nH]cc(F)c(=O)[nH]1 [5-FU, 5-fluorouracil]
- sensitivity of patient-derived gastric cancer cells to 5-FU (tumor inhibition effect) ([2]; #1 and #2 patients): not sensitive
- sensitivity of patient-derived gastric cancer cells to 5-FU (tumor proliferation inhibition) ([2]; #3 and #4 patients): sensitive
- clinical effect of 5-FU in the treatment of the patients ([3]; #1 and #2 patients with gastric cancer): not significant
- clinical symptoms after treatment with 5-FU ([3]; #3 and #4 patients with gastric cancer): significantly improved
- sensitivity of gastric cancer cell line to 5-FU [4]: sensitive
- sensitivity of gastric cancer cell line to 5-FU [5]: sensitive

Structure (SMILES): COc1cc(/C=C/C(=O)CC(=O)/C=C/c2ccc(O)c(OC)c2)ccc1O [curcumin]
- highest concentration within the safe range for embryos [1]: 50 µM

Structure (SMILES): COc1cc2ncnc(Nc3ccc(F)c(Cl)c3)c2cc1OCCCN1CCOCC1 [gefitinib]
- clinical effect of gefitinib in the treatment of the patients ([6]; *5 and *6 patients with lung cancer): significant
- clinical symptoms after treatment ([6]; *7 and *8 patients with lung cancer): not significantly improved
- sensitivity of lung cancer cell line to gefitinib [7]: sensitive
- sensitivity of patient-derived lung cancer cells to gefitinib (tumor inhibition effect) ([8]; *5 and *6 patients): sensitive
- sensitivity of patient-derived lung cancer cells to gefitinib ([8]; *7 and *8 patients): not sensitive
- highest concentration within the safe range for embryos [1]: 50 µM
